Key:
[1] = human, serum, 4383 h
[2] = human
[3] = Comments (NB not yet translated). [column 'COMMENTAIRES' in source]; details: human
[4] = human, serum
[5] = human; remark: listed apart in the source
[6] = human; remark: listed apart in the source
[7] = human, serum; remark: listed apart in the source
[8] = Proposed mechanism(s) of liver damage. [column 'MEC' in source]; details: human
[9] = Times to onset, minimal and maximal, observed in the indexed observations. [column 'DELAI' in source]; details: human
[10] = human; remark: listed apart in the source
[11] = human; remark: listed apart in the source
[12] = human; remark: listed apart in the source
[13] = human; remark: listed apart in the source
[14] = human; remark: listed apart in the source
[15] = Highest frequency of moderate liver toxicity observed during clinical trials, expressed as a percentage. [column '% BIOL' in source]; details: human
[16] = Highest frequency of acute liver toxicity observed during clinical trials, expressed as a percentage. [column '% AIGUE' in source]; details: human
[17] = human; remark: listed apart in the source
[18] = Presence of at least one case with successful reintroduction. [column 'REINT' in source]; details: human
[19] = human; remark: listed apart in the source
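For Hepatotoxicity (association with vascular disease) in this document: count of indexed literature references reporting vascular liver injury in humans, e.g. peliosis hepatitis, hepatic veno-occlusive disease or Budd-Chiari syndrome.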
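For Hepatotoxicity (benign tumour) in this document: value is a count of indexed literature references citing a benign tumour confirmed by histopathology.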
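For Hepatotoxicity (choleostasis) in this document: human cholestatic liver injury, shown by histopathology or by peak ALT or AST elevation over alkaline phosphatase ratio below 2, value counts indexed literature reports.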
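For Hepatotoxicity (chronic liver disease) in this document: chronic liver injury confirmed by histopathology or persistently raised serum aminotransferase activity beyond 6 months, value given as the count of indexed literature references.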
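For Hepatotoxicity (cirrhosis) in this document: value is a count of indexed literature references reporting cirrhosis confirmed by histopathology.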
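For Hepatotoxicity (cytolytic) in this document: human cytolytic liver injury, shown by histopathology or by a ratio above 5 of peak ALT or AST elevation to alkaline phosphatase elevation, value counts indexed references.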
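For Hepatotoxicity (granulomatous hepatitis) in this document: value is a count of indexed literature references reporting granulomatous liver disease confirmed by histopathology.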
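For Hepatotoxicity (malignant tumour) in this document: malignant tumour confirmed by histopathology, value gives the count of indexed literature references reporting it.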
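For Hepatotoxicity (severe hepatitis) in this document: human clinical data: severe hepatitis, meaning potentially life-threatening liver failure or clinically observed cases, the value counts how many indexed literature references report it.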
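For Hepatotoxicity (steatosis) in this document: steatosis confirmed by histopathology, value is the count of indexed references.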

O=c1[nH]c(=O)n([C@H]2C[C@H](O)[C@@H](CO)O2)cc1F [FLOXURIDINE]
Hepatotoxicity (chronic liver disease) [1]: 0
Hepatotoxicity (benign tumour) [2]: 0
Hepatotoxicity (comment) [3]: CHOLECYSTITE_ACALCULEUSE CHOLANGITE/IAH #CBP
Hepatotoxicity (acute) [4]: 9
Hepatotoxicity (association with vascular disease) [5]: 3
Hepatotoxicity (cirrhosis) [6]: 4
Hepatotoxicity (moderate) [7]: 25
Hepatotoxicity (mechanism) [8]: Dose-dependant
Hepatotoxicity (time to onset) [9]: 3 cures - 12 cures
Hepatotoxicity (animal toxicity known) [10]: yes
Hepatotoxicity (choleostasis) [11]: 7
Hepatotoxicity (steatosis) [12]: 2
Hepatotoxicity (granulomatous hepatitis) [13]: 0
Hepatotoxicity (malignant tumour) [14]: 0
Hepatotoxicity (moderate) [15]: 100%
Hepatotoxicity (acute) [16]: 60%
Hepatotoxicity (severe hepatitis) [17]: 3
Hepatotoxicity (successful reintroduction) [18]: yes
Hepatotoxicity (cytolytic) [19]: 2

CC(C)C(=O)Nc1ccc([N+](=O)[O-])c(C(F)(F)F)c1 [FLUTAMIDE]
Hepatotoxicity (chronic liver disease) [1]: 0
Hepatotoxicity (benign tumour) [2]: 0
Hepatotoxicity (comment) [3]: AC_ANTI-N
Hepatotoxicity (acute) [4]: 31
Hepatotoxicity (association with vascular disease) [5]: 0
Hepatotoxicity (cirrhosis) [6]: 0
Hepatotoxicity (moderate) [7]: 21
Hepatotoxicity (mechanism) [8]: Allergic, Reactive metabolite, Dose-dependant
Hepatotoxicity (time to onset) [9]: 3 days - 10 months
Hepatotoxicity (animal toxicity known) [10]: yes
Hepatotoxicity (choleostasis) [11]: 7
Hepatotoxicity (steatosis) [12]: 0
Hepatotoxicity (granulomatous hepatitis) [13]: 0
Hepatotoxicity (malignant tumour) [14]: 0
Hepatotoxicity (moderate) [15]: 41.2%
Hepatotoxicity (acute) [16]: 10%
Hepatotoxicity (severe hepatitis) [17]: 16
Hepatotoxicity (successful reintroduction) [18]: yes
Hepatotoxicity (cytolytic) [19]: 21

FC(F)(F)C(Cl)Br (centres undefined) [HALOTHANE]
Hepatotoxicity (chronic liver disease) [1]: 3
Hepatotoxicity (benign tumour) [2]: 0
Hepatotoxicity (comment) [3]: AC_ANTI-MFR1/-TFA RC/METHOXYFLURANE/ENFLURANE
Hepatotoxicity (acute) [4]: 99
Hepatotoxicity (association with vascular disease) [5]: 0
Hepatotoxicity (cirrhosis) [6]: 2
Hepatotoxicity (moderate) [7]: 24
Hepatotoxicity (mechanism) [8]: Allergic, Toxic Metabolite
Hepatotoxicity (time to onset) [9]: 1 day - 3 months
Hepatotoxicity (animal toxicity known) [10]: yes
Hepatotoxicity (choleostasis) [11]: 7
Hepatotoxicity (steatosis) [12]: 1
Hepatotoxicity (granulomatous hepatitis) [13]: 2
Hepatotoxicity (malignant tumour) [14]: 0
Hepatotoxicity (moderate) [15]: 33%
Hepatotoxicity (acute) [16]: 0%
Hepatotoxicity (severe hepatitis) [17]: 35
Hepatotoxicity (successful reintroduction) [18]: yes
Hepatotoxicity (cytolytic) [19]: 31

CC(C)NNC(=O)c1ccncc1 [IPRONIAZID]
Hepatotoxicity (chronic liver disease) [1]: 3
Hepatotoxicity (benign tumour) [2]: 0
Hepatotoxicity (comment) [3]: AC_ANTI-M6 RC/PHENIPRAZINE
Hepatotoxicity (acute) [4]: 30
Hepatotoxicity (association with vascular disease) [5]: 0
Hepatotoxicity (cirrhosis) [6]: 3
Hepatotoxicity (moderate) [7]: 2
Hepatotoxicity (mechanism) [8]: Allergic, Reactive metabolite
Hepatotoxicity (time to onset) [9]: 3 days - 1 year
Hepatotoxicity (animal toxicity known) [10]: yes
Hepatotoxicity (choleostasis) [11]: 3
Hepatotoxicity (steatosis) [12]: 0
Hepatotoxicity (granulomatous hepatitis) [13]: 0
Hepatotoxicity (malignant tumour) [14]: 0
Hepatotoxicity (moderate) [15]: 30%
Hepatotoxicity (acute) [16]: 1.4%
Hepatotoxicity (severe hepatitis) [17]: 18
Hepatotoxicity (successful reintroduction) [18]: yes
Hepatotoxicity (cytolytic) [19]: 28

CC(C)Nc1ncccn1 [ISAXONINE]
Hepatotoxicity (chronic liver disease) [1]: 0
Hepatotoxicity (benign tumour) [2]: 0
Hepatotoxicity (comment) [3]: AC_ANTI-MFR1
Hepatotoxicity (acute) [4]: 13
Hepatotoxicity (association with vascular disease) [5]: 0
Hepatotoxicity (cirrhosis) [6]: 0
Hepatotoxicity (moderate) [7]: 0
Hepatotoxicity (mechanism) [8]: Allergic, Reactive metabolite
Hepatotoxicity (time to onset) [9]: 1 month - 6 months
Hepatotoxicity (animal toxicity known) [10]: yes
Hepatotoxicity (choleostasis) [11]: 3
Hepatotoxicity (steatosis) [12]: 1
Hepatotoxicity (granulomatous hepatitis) [13]: 1
Hepatotoxicity (malignant tumour) [14]: 0
Hepatotoxicity (moderate) [15]: 0%
Hepatotoxicity (acute) [16]: 0%
Hepatotoxicity (severe hepatitis) [17]: 4
Hepatotoxicity (successful reintroduction) [18]: yes
Hepatotoxicity (cytolytic) [19]: 13

FC(F)OC(Cl)C(F)(F)F (centres undefined) [ISOFLURANE]
Hepatotoxicity (chronic liver disease) [1]: 0
Hepatotoxicity (benign tumour) [2]: 0
Hepatotoxicity (comment) [3]: AC_ANTI-MFR/-TFA I/ALCOOL
Hepatotoxicity (acute) [4]: 25
Hepatotoxicity (association with vascular disease) [5]: 0
Hepatotoxicity (cirrhosis) [6]: 0
Hepatotoxicity (moderate) [7]: 5
Hepatotoxicity (mechanism) [8]: Allergic, Reactive metabolite
Hepatotoxicity (time to onset) [9]: < 1 day - 3 weeks
Hepatotoxicity (animal toxicity known) [10]: yes
Hepatotoxicity (choleostasis) [11]: 1
Hepatotoxicity (steatosis) [12]: 2
Hepatotoxicity (granulomatous hepatitis) [13]: 0
Hepatotoxicity (malignant tumour) [14]: 0
Hepatotoxicity (moderate) [15]: 13.3%
Hepatotoxicity (acute) [16]: 0%
Hepatotoxicity (severe hepatitis) [17]: 11
Hepatotoxicity (successful reintroduction) [18]: yes
Hepatotoxicity (cytolytic) [19]: 20

NNC(=O)c1ccncc1 [ISONIAZID]
Hepatotoxicity (chronic liver disease) [1]: 3
Hepatotoxicity (benign tumour) [2]: 0
Hepatotoxicity (comment) [3]: I/CARBAMAZE/ENFLURANE/PARACETAMOL/RIFAMPICINE/RIFAMYCINE/VALPROATE
Hepatotoxicity (acute) [4]: 91
Hepatotoxicity (association with vascular disease) [5]: 0
Hepatotoxicity (cirrhosis) [6]: 4
Hepatotoxicity (moderate) [7]: 60
Hepatotoxicity (mechanism) [8]: Dose-dependant, Reactive metabolite
Hepatotoxicity (time to onset) [9]: 1 day - 1 year
Hepatotoxicity (animal toxicity known) [10]: yes
Hepatotoxicity (choleostasis) [11]: 11
Hepatotoxicity (steatosis) [12]: 1
Hepatotoxicity (granulomatous hepatitis) [13]: 1
Hepatotoxicity (malignant tumour) [14]: 0
Hepatotoxicity (moderate) [15]: 51.2%
Hepatotoxicity (acute) [16]: 26.7%
Hepatotoxicity (severe hepatitis) [17]: 40
Hepatotoxicity (successful reintroduction) [18]: yes
Hepatotoxicity (cytolytic) [19]: 61

CC(=O)N1CCN(c2ccc(OCC3COC(Cn4ccnc4)(c4ccc(Cl)cc4Cl)O3)cc2)CC1 (centres undefined) [KETOCONAZOLE]
Hepatotoxicity (chronic liver disease) [1]: 3
Hepatotoxicity (benign tumour) [2]: 0
Hepatotoxicity (comment) [3]: CHOLESTASE_PROLONGEE
Hepatotoxicity (acute) [4]: 45
Hepatotoxicity (association with vascular disease) [5]: 0
Hepatotoxicity (cirrhosis) [6]: 0
Hepatotoxicity (moderate) [7]: 62
Hepatotoxicity (mechanism) [8]: Toxic, Dose-dependant
Hepatotoxicity (time to onset) [9]: 3 days - 5 years
Hepatotoxicity (animal toxicity known) [10]: yes
Hepatotoxicity (choleostasis) [11]: 19
Hepatotoxicity (steatosis) [12]: 2
Hepatotoxicity (granulomatous hepatitis) [13]: 1
Hepatotoxicity (malignant tumour) [14]: 0
Hepatotoxicity (moderate) [15]: 50%
Hepatotoxicity (acute) [16]: 2.9%
Hepatotoxicity (severe hepatitis) [17]: 14
Hepatotoxicity (successful reintroduction) [18]: yes
Hepatotoxicity (cytolytic) [19]: 37

COC(=O)Nc1nc2ccc(C(=O)c3ccccc3)cc2[nH]1 [MEBENDAZOLE]
Hepatotoxicity (chronic liver disease) [1]: 0
Hepatotoxicity (benign tumour) [2]: 0
Hepatotoxicity (comment) [3]: AC_ANTI-ML I/CIMETIDINE
Hepatotoxicity (acute) [4]: 3
Hepatotoxicity (association with vascular disease) [5]: 0
Hepatotoxicity (cirrhosis) [6]: 0
Hepatotoxicity (moderate) [7]: 13
Hepatotoxicity (mechanism) [8]: Allergic, Dose-dependant
Hepatotoxicity (time to onset) [9]: 2 days - 2 months
Hepatotoxicity (animal toxicity known) [10]: yes
Hepatotoxicity (choleostasis) [11]: 0
Hepatotoxicity (steatosis) [12]: 0
Hepatotoxicity (granulomatous hepatitis) [13]: 1
Hepatotoxicity (malignant tumour) [14]: 0
Hepatotoxicity (moderate) [15]: 30%
Hepatotoxicity (acute) [16]: 0%
Hepatotoxicity (severe hepatitis) [17]: 0
Hepatotoxicity (successful reintroduction) [18]: yes
Hepatotoxicity (cytolytic) [19]: 3

Cc1ccc(S(=O)(=O)NC(=O)NC2CCCCC2)cc1N [METAHEXAMIDE]
Hepatotoxicity (chronic liver disease) [1]: 0
Hepatotoxicity (benign tumour) [2]: 0
Hepatotoxicity (comment) [3]: PERICHOLANGITE RC/CARBUTAMIDE
Hepatotoxicity (acute) [4]: 11
Hepatotoxicity (association with vascular disease) [5]: 0
Hepatotoxicity (cirrhosis) [6]: 1
Hepatotoxicity (moderate) [7]: 6
Hepatotoxicity (mechanism) [8]: Dose-dependant
Hepatotoxicity (time to onset) [9]: 4 days - 1 week
Hepatotoxicity (animal toxicity known) [10]: yes
Hepatotoxicity (choleostasis) [11]: 4
Hepatotoxicity (steatosis) [12]: 0
Hepatotoxicity (granulomatous hepatitis) [13]: 0
Hepatotoxicity (malignant tumour) [14]: 0
Hepatotoxicity (moderate) [15]: 24%
Hepatotoxicity (acute) [16]: 4.4%
Hepatotoxicity (severe hepatitis) [17]: 2
Hepatotoxicity (successful reintroduction) [18]: yes
Hepatotoxicity (cytolytic) [19]: 7

CN(Cc1cnc2nc(N)nc(N)c2n1)c1ccc(C(=O)N[C@@H](CCC(=O)O)C(=O)O)cc1 [METHOTREXATE]
Hepatotoxicity (chronic liver disease) [1]: 45
Hepatotoxicity (benign tumour) [2]: 0
Hepatotoxicity (comment) [3]: I/ETRETINATE REACTIVATION_HVB SHNA MVO
Hepatotoxicity (acute) [4]: 26
Hepatotoxicity (association with vascular disease) [5]: 5
Hepatotoxicity (cirrhosis) [6]: 42
Hepatotoxicity (moderate) [7]: 173
Hepatotoxicity (mechanism) [8]: Dose-dependant
Hepatotoxicity (time to onset) [9]: 4 hours - 16 years
Hepatotoxicity (animal toxicity known) [10]: yes
Hepatotoxicity (choleostasis) [11]: 2
Hepatotoxicity (steatosis) [12]: 16
Hepatotoxicity (granulomatous hepatitis) [13]: 8
Hepatotoxicity (malignant tumour) [14]: 8
Hepatotoxicity (moderate) [15]: 88%
Hepatotoxicity (acute) [16]: 35%
Hepatotoxicity (severe hepatitis) [17]: 5
Hepatotoxicity (successful reintroduction) [18]: yes
Hepatotoxicity (cytolytic) [19]: 21
